Source: patent US20130121994A1, “TRIAZOLOPYRIDINE DERIVATIVES” (BAYER INTELLECTUAL PROPERTY GMBH, priority 2009, published 2013)
pIC50: −log10 of the molar value.

target: T1, human kinase Mps-1 (Homo sapiens, UniProt P33981); assay: Mps-1 kinase assay (HTRF); format: biochemical
T1 construct: N-terminally GST-tagged human full length recombinant Mps-1 kinase; GST (N); purchased Invitrogen, Karslruhe, Germany PV4071
T1 sequence (P33981 1-857): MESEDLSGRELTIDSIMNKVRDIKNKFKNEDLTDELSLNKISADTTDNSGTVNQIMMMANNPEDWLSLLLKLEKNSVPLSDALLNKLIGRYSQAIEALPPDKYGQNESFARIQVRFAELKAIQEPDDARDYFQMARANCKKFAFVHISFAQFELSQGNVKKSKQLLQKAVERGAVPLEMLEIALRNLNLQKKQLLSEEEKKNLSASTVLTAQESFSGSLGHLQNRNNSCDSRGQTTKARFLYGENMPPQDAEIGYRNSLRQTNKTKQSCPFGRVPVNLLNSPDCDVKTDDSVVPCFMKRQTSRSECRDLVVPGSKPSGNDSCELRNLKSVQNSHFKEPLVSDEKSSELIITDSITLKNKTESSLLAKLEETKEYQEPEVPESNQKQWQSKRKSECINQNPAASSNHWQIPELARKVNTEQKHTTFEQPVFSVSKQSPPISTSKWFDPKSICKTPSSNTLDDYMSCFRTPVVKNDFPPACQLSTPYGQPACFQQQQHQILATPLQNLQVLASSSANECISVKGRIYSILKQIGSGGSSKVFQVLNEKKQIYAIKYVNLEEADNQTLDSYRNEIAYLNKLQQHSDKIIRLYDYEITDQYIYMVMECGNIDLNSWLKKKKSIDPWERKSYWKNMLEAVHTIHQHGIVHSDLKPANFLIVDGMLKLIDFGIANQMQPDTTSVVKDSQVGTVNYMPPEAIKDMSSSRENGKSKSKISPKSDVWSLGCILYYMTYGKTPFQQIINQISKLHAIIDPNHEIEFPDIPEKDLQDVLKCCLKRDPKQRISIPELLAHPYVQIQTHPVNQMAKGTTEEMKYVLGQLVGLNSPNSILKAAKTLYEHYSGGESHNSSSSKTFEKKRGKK
Protocol: The human kinase Mps-1 phosphorylates a biotinylated substrate peptide. Detection of the phosphorylated product is achieved by homogenous time-resolved fluorescence resonance energy transfer (HTRF) from Europium-labelled anti-phospho-Serine/Threonine antibody as donor to streptavidin labelled with cross-linked allophycocyanin (SA-XLent) as acceptor. Compounds are tested for their inhibition of the kinase activity.
N-terminally GST-tagged human full length recombinant Mps-1 kinase (purchased from Invitrogen, Karslruhe, Germany, cat. no PV4071) was used. As substrate for the kinase reaction a biotinylated peptide of the amino-acid sequence […] (C-terminus in amide form, purchased from Biosynthan GmbH, Berlin) was used.
The concentration of Mps-1 in the assay was adjusted to the activity of the enzyme lot and was chosen appropriate to have the assay in the linear range, typical enzyme concentrations were in the range of about 1 nM (final conc. in the 5 μl assay volume).
The resulting mixture was incubated 1 h at 22° C. to allow the binding of the phosphorylated peptide to the anti-phospho(Ser/Thr)-Europium-antibody. Subsequently the amount of phosphorylated substrate was evaluated by measurement of the resonance energy transfer from the Europium-labelled anti-phospho(Ser/Thr) antibody to the Streptavidin-XLent.

Row | SMILES | pIC50
1 | N#Cc1ccccc1Nc1nc2ccc(-c3cccc(F)c3)cn2n1 [Example 3.12, 2-{[6-(3-fluorophenyl)[1,2,4]triazolo[1,5-a]pyridin-2-yl]amino}benzonitrile] | 6.05
2 | COc1ccccc1-c1ccc2nc(Nc3ccccc3C#N)nn2c1 [Example 3.13, 2-{[6-(2 methoxyphenyl)[1,2,4]triazolo[1,5-a]pyridin-2-yl]amino}benzonitrile] | 5.92
3 | N#Cc1ccccc1Nc1nc2ccc(-c3ccc(CO)cc3)cn2n1 [Example 3.14, 2-({6-[4-(hydroxymethyl)phen-yl][1,2,4]triazolo[1,5-a]pyridin-2-yl}amino)benzonitrile] | 6.11
4 | N#Cc1ccccc1Nc1nc2ccc(-c3cccc(O)c3)cn2n1 [Example 3.17, 2-{[6-(3-hydroxyphenyl)[1,2,4]triazolo[1,5-a]pyridin-2-yl]amino}benzonitrile] | 7.55
5 | COc1c(C)cc(-c2ccc3nc(Nc4ccccc4C#N)nn3c2)cc1C [Example 3.19, 2-{[6-(4-methoxy-3,5-dimethylphenyl)[1,2,4]triazolo[1,5-a]pyridin-2-yl]amino}benzonitrile] | 7.02
6 | N#Cc1ccc(-c2ccc3nc(Nc4ccccc4C#N)nn3c2)cc1 [Example 3.20, 2-{[6-(4-cyanophenyl)[1,2,4]triazolo[1,5-a]pyridin-2-yl]amino}benzonitrile] | 5.82
7 | N#Cc1ccccc1Nc1nc2ccc(-c3ccc4[nH]ccc4c3)cn2n1 [Example 3.21, 2-{[6-(1H-indol-5-yl)[1,2,4]triazolo[1,5-a]pyridin-2-yl]amino}benzonitrile] | 6.68
8 | N#Cc1ccccc1Nc1nc2ccc(-c3ccc(N)cc3)cn2n1 [Example 4.2, 2-{[6-(4-aminophenyl)[1,2,4]triazolo[1,5-a]pyridin-2-yl]amino}benzonitrile] | 7.34
9 | CC(=O)Nc1ccc(-c2ccc3nc(Nc4ccccc4C#N)nn3c2)cc1 [Example 4.3, N-(4-{2-[(2-cyanophenyl)amino][1,2,4]triazolo[1,5-a]pyridin-6-yl}phenyl)acetamide] | 7.55
10 | COc1ccccc1Nc1nc2ccc(-c3ccc(N)cc3)cn2n1 [Example 5.2, 6-(4-aminophenyl)-N-(2-methoxyphenyl)[1,2,4]triazolo[1,5-a]pyridin-2-amine] | 7.14
11 | COc1ccccc1Nc1nc2ccc(-c3ccc(NC(C)=O)cc3)cn2n1 [Example 5.3, N-(4-{2-[(2-methoxyphenyl)amino][1,2,4]triazolo[1,5-a]pyridin-6-yl}phenyl)acetamide] | 7.12
12 | O=C(CCl)Nc1ccc(-c2ccc3nc(Nc4ccccc4C(F)(F)F)nn3c2)cc1 [Example 6.3, 2-chloro-N-[4-(2-{[2-(trifluoromethyl)phenyl]amino}[1,2,4]triazolo[1,5-a]pyridin-6-yl)phenyl]acetamide] | 6.66
13 | COc1ccccc1Nc1nc2ccc(-c3cccc(NS(C)(=O)=O)c3)cn2n1 [Example 8.3, N-(3-{2-[(2-methoxyphenyl)amino][1,2,4]triazolo[1,5-a]pyridin-6-yl}phenyl)methanesulfonamide] | 6.72
14 | COc1ccccc1Nc1nc2ccc(-c3cccc(NC(=O)NC(C)C)c3)cn2n1 [Example 8.4, 1-(3-{2-[(2-methoxyphenyl)amino][1,2,4]triazolo[1,5-a]pyridin-6-yl}phenyl)-3-propan-2-ylurea] | 7.04
15 | CCOC(=O)c1cccc(-c2ccc3nc(Nc4ccccc4C#N)nn3c2)c1 [Example 9.1, ethyl 3-{2-[(2-cyanophenyl)amino][1,2,4]triazolo[1,5-a]pyridin-6-yl}benzoate] | 6.30
16 | N#Cc1ccccc1Nc1nc2ccc(-c3cccc(C(=O)O)c3)cn2n1 [Example 9.2, 3-{2-[(2-cyanophenyl)amino][1,2,4]triazolo[1,5-a]pyridin-6-yl}benzoic acid] | 7.14
17 | CC(C)NC(=O)c1cccc(-c2ccc3nc(Nc4ccccc4C#N)nn3c2)c1 [Example 9.4, 3-{2-[(2-cyanophenyl)amino][1,2,4]triazolo[1,5-a]pyridin-6-yl}-N-(propan-2-yl)benzamide] | 8.06
18 | O=C(NCC(F)(F)F)c1ccc(-c2ccc3nc(Nc4cccnc4OCC(F)(F)F)nn3c2)cc1 [Example 11.001, 4-(2-{[2-(2,2,2-trifluoroethoxy)pyridin-3-yl]amino}[1,2,4]triazolo[1,5-a]-pyridin-6-yl)-N-(2,2,2-trifluoroethyl)benzamide] | ≥ 9.00
19 | CC(C)(C)NC(=O)c1ccc(Nc2nc3ccc(-c4ccc(C(=O)NCC(F)(F)F)cc4)cn3n2)c(OCC(F)(F)F)c1 [Example 11.002, N-tert-butyl-3-(2,2,2-trifluoroethoxy)-4-[(6-{4-[(2,2,2-trifluoroethyl)-carbamoyl]phenyl}[1,2,4]triazolo[1,5-a]pyridin-2-yl)amino]benzamide] | ≥ 9.00
20 | CCOc1ncccc1Nc1nc2ccc(-c3ccc(C(=O)NCC(F)(F)F)cc3)cn2n1 [Example 11.003, 4-{2-[(2-ethoxypyridin-3-yl)amino][1,2,4]triazolo[1,5-a]pyridin-6-yl}-N-(2,2,2-trifluoroethyl)benzamide] | 8.43
21 | COc1cc(C(=O)NC(C)(C)C)ccc1Nc1nc2ccc(-c3ccc(C(=O)NCC(F)(F)F)cc3)cn2n1 [Example 11.005, N-tert-butyl-3-methoxy-4-[(6-{4-[(2,2,2-trifluoroethyl)carbamoyl]phenyl}[1,2,4]triazolo[1,5-a]pyridin-2-yl)amino]benzamide] | 9.00
22 | CCNC(=O)c1ccc(Nc2nc3ccc(-c4ccc(C(=O)NCC(F)(F)F)cc4)cn3n2)c(OC)c1 [Example 11.006, N-ethyl-3-methoxy-4-[(6-{4-[(2,2,2-trifluoroethyl)carbamoyl]phenyl}[1,2,4]triazolo[1,5-a]pyridin-2-yl)amino]benzamide] | ≥ 9.00
23 | CNCCN(C)C(=O)c1ccc(Nc2nc3ccc(-c4ccc(C(=O)NCC(F)(F)F)cc4)cn3n2)c(OC)c1 [Example 11.007, 3-methoxy-N-methyl-N-[2-(methylamino)ethyl]-4-[(6-{4-[(2,2,2-trifluoroethyl)carbamoyl]phenyl}[1,2,4]triazolo[1,5-a]pyridin-2-yl)amino]benzamide] | ≥ 9.00
24 | N#Cc1ccccc1Nc1nc2ccc(-c3ccc(C(=O)O)cc3)cn2n1 [Example 11.009, 4-{2-[(2-cyanophenyl)amino][1,2,4]triazolo[1,5-a]pyridin-6-yl}benzoic acid] | 5.81
25 | N#Cc1ccccc1Nc1nc2ccc(-c3ccc(C(=O)NCC(F)(F)F)cc3)cn2n1 [Example 11.010, 4-{2-[(2-cyanophenyl)amino][1,2,4]triazolo[1,5-a]pyridin-6-yl}-N-(2,2,2-trifluoroethyl)benzamide] | 8.79
26 | CC(C)(C)CNC(=O)c1ccc(-c2ccc3nc(Nc4ccccc4C#N)nn3c2)cc1 [Example 11.012, 4-{2-[(2-cyanophenyl)amino][1,2,4]triazolo[1,5-a]pyridin-6-yl}-N-(2,2-dimethylpropyl)benzamide] | 8.08
27 | CC(C)(C)OC(=O)c1ccc(-c2ccc3nc(Nc4ccccc4C#N)nn3c2)cc1 [Example 11.013, tert-butyl 4-{2-[(2-cyanophenyl)amino][1,2,4]triazolo[1,5-a]pyridin-6-yl}benzoate] | 5.97
28 | CC(C)(C)NC(=O)c1ccc(-c2ccc3nc(Nc4ccccc4C#N)nn3c2)cc1 [Example 11.014, N-tert-butyl-4-{2-[(2-cyanophenyl)amino][1,2,4]triazolo[1,5-a]pyridin-6-yl}benzamide] | 7.37
29 | CCOCCNC(=O)c1ccc(Nc2nc3ccc(-c4ccc(C(=O)NCC(F)(F)F)cc4)cn3n2)c(OC)c1 [Example 11.015, N-(2-ethoxyethyl)-3-methoxy-4-[(6-{4-[(2,2,2-trifluoroethyl)carbamoyl]phenyl}[1,2,4]triazolo [1,5-a]pyridin-2-yl)amino]benzamide] | 8.79
30 | COc1cc(C(=O)NCC(C)(C)O)ccc1Nc1nc2ccc(-c3ccc(C(=O)NCC(F)(F)F)cc3)cn2n1 [Example 11.016, N-(2-hydroxy-2-methylpropyl)-3-methoxy-4-[(6-{4-[(2,2,2-trifluoroethyl)carbamoyl]phenyl}[1,2,4]triazolo [1,5-a]pyridin-2-yl)amino]benzamide] | 8.89
